Read-outs that look alike come from different tables or passages of the source.
How the values were obtained:
[1] = biological target: recombinant human His-tagged MDM2 protein (residues 1-118) (Homo sapiens (Human), UniProt Q00987); experiment: Fluorescence-polarization MDM2 binding assay;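 also: fluorescence polarization read after three hours of incubation in potassium phosphate buffer containing bovine gamma globulin and Triton X-100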
[2] = system: cancer cell lines with wild-type p53 / mutated or deleted p53 (ATCC); experiment: Cell growth assay (WST-8), other cancer cell lines; format: cell-based; conditions: Homo sapiens
[3] = system: Isogenic HCT-116 colon cancer cell lines; experiment: cells; format: cell-based; conditions: Homo sapiens;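 also: cells grown in 96-well plates in McCoy's 5A medium with 10% FBS, exposed to compound for 4 days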
Experimental: Cells were seeded in 96-well flat bottom cell culture plates at a density of 2−3×10^3 cells/well with compounds and incubated for 4 days.

[4] = Table 19A, FP binding assay, read-out: MDM2 IC50
[5] = PC-3, Table 19A, PC-3 cells, deleted p53, cell growth, read-out: PC-3 (deleted p53) IC50
[6] = HCT-116, read-out: HCT-116 (p53-/-) IC50, Table 19A, HCT-116 p53-/-, cell growth
[7] = HCT-116, read-out: HCT-116 (p53 wild-type) IC50, Table 19A, HCT-116 p53 wild-type, cell growth
[8] = LNCaP, Table 19A, LNCAP cells, p53 wild-type, cell growth, read-out: LNCAP (p53 wild-type) IC50
[9] = HCT-116, read-out: HCT116p53KO IC50, Table 19D, HCT116 p53KO
[10] = HCT-116, read-out: HCT116p53WT IC50, Table 19D, HCT116 p53WT
[11] = Table 19D, read-out: MDM2 Binding Affinities IC50
[12] = LNCaP, Table 19D, LNCaP cells, read-out: LNCaP IC50
[13] = PC-3, Table 19D, PC3 cells, read-out: PC3 IC50
[14] = HCT-116, read-out: Cell growth inhibition using WST assay, HCT116 p53KO IC50, Table 19C, HCT116 p53KO
[15] = HCT-116, read-out: Cell growth inhibition using WST assay, HCT116 p53WT IC50, Table 19C, HCT116 p53WT
[16] = Table 19C, read-out: Bidning affinities to MDM2 as determined using FP assay IC50
[17] = LNCaP, Table 19C, LNCaP cells, read-out: Cell growth inhibition using WST assay, LNCaP IC50
[18] = PC-3, Table 19C, PC3 cells, read-out: Cell growth inhibition using WST assay, PC3 IC50

recombinant human His-tagged MDM2 protein (residues 1-118), sequence (Q00987 1-118): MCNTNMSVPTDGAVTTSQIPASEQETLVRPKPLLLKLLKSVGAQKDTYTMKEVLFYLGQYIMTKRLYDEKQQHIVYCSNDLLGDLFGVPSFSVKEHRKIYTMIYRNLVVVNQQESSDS

| Structure (SMILES) | IC50 [3, 14] [µM] | IC50 [3, 15] [µM] | IC50 [1, 16] [µM] | IC50 [2, 17] [µM] | IC50 [2, 18] [µM] | other results |
| --- | --- | --- | --- | --- | --- | --- |
| CC(C)(C)C[C@H]1N[C@@H](C(=O)N[C@H]2C[C@@](C)(O)C2)[C@H](c2cccc(Cl)c2)[C@@]12C(=O)Nc1cc(F)c(F)cc12 [C035] |  |  |  |  |  | IC50 [1, 4]: < 3 µM; IC50 [2, 5]: > 10 µM |
| CC(C)(C)C[C@H]1N[C@@H](C(=O)NCC[C@H](O)C=O)[C@H](c2cccc(Cl)c2)[C@@]12C(=O)Nc1cc(Cl)c(F)cc12 [MI-219-M1 (a)] |  |  |  |  |  | IC50 [3, 6]: > 10 µM; IC50 [3, 7]: < 3 µM; IC50 [1, 4]: < 1 µM; IC50 [2, 8]: < 3 µM; IC50 [2, 5]: > 10 µM |
| CC(C)(C)C[C@H]1N[C@@H](C(=O)NCCC(=O)CO)[C@H](c2cccc(Cl)c2)[C@@]12C(=O)Nc1cc(Cl)c(F)cc12 [MI-219-M1 (b)] |  |  |  |  |  | IC50 [3, 6]: > 10 µM; IC50 [3, 7]: < 3 µM; IC50 [1, 4]: < 1 µM; IC50 [2, 8]: < 3 µM; IC50 [2, 5]: > 10 µM |
| CC(C)(C)C[C@H]1N[C@@H](C(=O)NCCCO)[C@H](c2cccc(Cl)c2)[C@@]12C(=O)Nc1cc(Cl)c(F)cc12 [MI-219-M8] |  |  |  |  |  | IC50 [3, 9]: 18 ± 4.1 µM; IC50 [3, 10]: 1.4 ± 0.9 µM; IC50 [1, 11]: < 1 µM; IC50 [2, 12]: 1.1 ± 0.5 µM; IC50 [2, 13]: 9.2 ± 1.6 µM |
| CC(C)(C)C[C@H]1N[C@@H](C(=O)NCC[C@H](O)CO)[C@H](Cc2ccccc2)[C@@]12C(=O)Nc1cc(Cl)c(F)cc12 [MI-319-23] | > 10 | > 10 | > 10 | > 10 | > 10 |  |
| CC(C)(C)C[C@H]1N[C@@H](C(=O)NC[C@H](O)[C@H](O)CO)[C@H](Cc2cccc(Cl)c2)[C@@]12C(=O)Nc1cc(Cl)c(F)cc12 [MI-319-24] | > 10 | < 5 | < 1 | < 5 | > 10 |  |
| CC(C)(C)C[C@H]1N[C@@H](C(=O)NCC[C@H](O)CN)[C@H](c2cccc(Cl)c2)[C@@]12C(=O)Nc1cc(Cl)c(F)cc12 [MI-319-25] | > 10 | < 5 | < 1 | < 5 | > 10 |  |
| CC(C)(C)C[C@H]1N[C@@H](C(=O)NCC[C@H](O)COC(=O)CC(=O)O)[C@H](c2ccc(F)c(Cl)c2)[C@@]12C(=O)Nc1cc(Cl)c(F)cc12 [MI-319-26] | > 10 | < 5 | < 1 | < 5 | > 10 |  |
| CCOP(=O)(OCC)OC[C@@H](O)CCNC(=O)[C@@H]1N[C@H](CC(C)(C)C)[C@]2(C(=O)Nc3cc(Cl)c(F)cc32)[C@H]1c1ccc(F)c(Cl)c1 [MI-319-27] | > 10 | < 5 | < 5 |  |  | IC50 ([2]; LNCaP, read-out: Cell growth inhibition using WST assay, LNCaP IC50): < 5 µM; IC50 ([2]; PC-3, read-out: Cell growth inhibition using WST assay, PC3 IC50): > 10 µM |
| CN(C)C[C@@H](O)CCNC(=O)[C@@H]1N[C@H](CC(C)(C)C)[C@]2(C(=O)Nc3cc(Cl)c(F)cc32)[C@H]1c1ccc(F)c(Cl)c1 [MI-319-28] | > 5 | < 5 | < 5 | < 5 | > 5 |  |
| CN(CC[C@H](O)CO)C(=O)[C@@H]1N[C@H](CC(C)(C)C)[C@]2(C(=O)Nc3cc(Cl)c(F)cc32)[C@H]1c1cccc(Cl)c1 [MI-319-29] | > 10 | > 10 | > 5 | > 10 | > 10 |  |
| CNC[C@@H](O)CCNC(=O)[C@@H]1N[C@H](CC(C)(C)C)[C@]2(C(=O)Nc3cc(Cl)c(F)cc32)[C@H]1c1ccc(F)c(Cl)c1 [MI-319-30] | > 10 | > 10 | < 5 | > 5 | > 10 |  |
| CC(C)(C)C[C@H]1N[C@@H](C(=O)NCCN2CCN(C(=O)CO)CC2)[C@H](c2cccc(Cl)c2)[C@@]12C(=O)Nc1cc(Cl)c(F)cc12 [MI-319-33] | 25.3 ± 2.8 | 2.1 ± 0.2 | < 1 | 1.4 ± 0.2 | 23.6 ± 5.5 |  |
| CC(C)(C)C[C@H]1N[C@@H](C(=O)NCC[C@H](O)CO)[C@H](c2cncc(Cl)c2)[C@@]12C(=O)Nc1cc(Cl)c(F)cc12 [MI-319-34] | > 30 | 9.5 ± 2.1 | < 10 | < 10 | > 30 |  |
| CC(C)(C)C[C@H]1N[C@@H](C(=O)NCC[C@H](O)CO)[C@H](c2cc(Cl)ccn2)[C@@]12C(=O)Nc1cc(Cl)c(F)cc12 [MI-319-35] | > 10 | 4.8 ± 0.5 | < 10 | 3.2 ± 0.3 | > 10 |  |
| CC(C)(CCO)C[C@H]1N[C@@H](C(=O)NCC[C@H](O)CO)[C@H](c2cccc(Cl)c2)[C@@]12C(=O)Nc1cc(Cl)c(F)cc12 [MI-319-36] | > 30 | 12.2 ± 1.7 | < 5 | 6.4 ± 1.4 | > 30 |  |
| O=C(NCC[C@H](O)CO)[C@@H]1N[C@H](CC2(CCO)CCCC2)[C@]2(C(=O)Nc3cc(Cl)c(F)cc32)[C@H]1c1cccc(Cl)c1 [MI-319-37] | > 30 | < 10 | < 1 | < 5 | > 30 |  |
| O=C(NCC[C@H](O)CO)[C@H]1[C@H](c2cccc(Cl)c2)[C@@]2(C(=O)Nc3cc(Cl)c(F)cc32)[C@H]2CC3(CCCC3)CCN12 [MI-319-38] | > 10 | > 10 | > 3 | > 5 | > 10 |  |
| CC[C@H]1N[C@@H](C(=O)NCCN2CCOCC2)[C@H](c2cccc(Cl)c2)[C@@]12C(=O)Nc1cc(Cl)c(F)cc12 [MI-319-39] | > 10 | > 3 | > 10 | > 3 | > 10 |  |
| CC(C)(C)C[C@H]1N[C@@H](C(=O)NCC[C@H](O)CO)[C@H](c2ccc(F)c(Cl)c2)[C@@]12C(=O)Nc1cc(F)c(F)cc12 [MI-519-8] |  |  |  |  |  | IC50 [3, 9]: > 10 µM; IC50 [3, 10]: < 5 µM; IC50 [1, 11]: < 3 µM; IC50 [2, 12]: < 5 µM; IC50 [2, 13]: > 10 µM |
| CC(C)(C)C[C@H]1N[C@@H](C(=O)NCC[C@H](O)CO)[C@H](c2cccc(Cl)c2)[C@@]12C(=O)Nc1cc(F)c(F)cc12 [MI-519-9] |  |  |  |  |  | IC50 [3, 9]: > 10 µM; IC50 [3, 10]: < 3 µM; IC50 [1, 11]: < 3 µM; IC50 [2, 12]: < 3 µM; IC50 [2, 13]: > 10 µM |
| CN1[C@@H](C(=O)NCC[C@H](O)CO)[C@H](c2cccc(Cl)c2F)[C@@]2(C(=O)Nc3cc(F)c(F)cc32)[C@H]1CC(C)(C)C [MI-519-10-me] |  |  |  |  |  | IC50 [3, 9]: > 30 µM; IC50 [3, 10]: > 1 µM; IC50 [1, 11]: < 10 µM; IC50 [2, 12]: > 1 µM; IC50 [2, 13]: > 30 µM |
| CC(C)(C)C[C@H]1N[C@@H](C(=O)NCC[C@H](O)CO)[C@H](c2cccc(Cl)c2F)[C@@]12C(=O)Nc1cc(F)c(F)cc12 [MI-519-10] |  |  |  |  |  | IC50 [3, 9]: > 10 µM; IC50 [3, 10]: < 3 µM; IC50 [1, 11]: < 3 µM; IC50 [2, 12]: < 3 µM; IC50 [2, 13]: > 10 µM |
| CC(C)(C)C[C@H]1N[C@@H](C(=O)NCC[C@H](O)CO)[C@H](c2cccc(F)c2)[C@@]12C(=O)Nc1cc(F)c(F)cc12 [MI-519-11] |  |  |  |  |  | IC50 [3, 9]: > 10 µM; IC50 [3, 10]: > 5 µM; IC50 [1, 11]: > 5 µM; IC50 [2, 12]: > 5 µM; IC50 [2, 13]: > 10 µM |
| CC(C)(C)C[C@H]1N[C@@H](C(=O)NC2CCN(S(=O)(=O)C(F)(F)F)CC2)[C@H](c2cccc(Cl)c2F)[C@@]12C(=O)Nc1cc(Cl)ccc12 [MI-780] |  |  |  |  |  | IC50 [1, 4]: < 3 µM; IC50 ([2]; SJSA-1, Table 19A, SJSA-1 cells, p53 wild-type, cell growth, read-out: SJSA-1 (p53 wild-type) IC50): < 5 µM |
